{"source": "patent US20030181408A1", "about": "“Genes essential for microbial proliferation and antisense thereto” (priority 1999, published 2003)", "molecules": {"B1": {"name": "EcXA083: antisense clone insert, E. coli gene hrpB (nucleic acid, listed as Escherichia coli)", "DNA": "CGGCTTAGCGCGTCGTTGGCATCGAGCATCGCTCCCATGCCGTTTGCCAGTTGATAGCGTCCATCTTGCC"}}, "key": {"[1]": {"tested_on": "E. coli transformed with an IPTG-inducible plasmid containing antisense clones", "assay": "Cell based assay: antibiotic sensitivity of E. coli expressing sublethal antisense RNA (Example 9)", "source_text": "The effectiveness of the above cell based assay was validated using constructs expressing antisense RNA to the proliferation required E. coli genes rplL, rplJ, and rplW encoding ribosomal proteins L7/L12, L10 and L23 respectively. These proteins are part of the protein synthesis apparatus of the cell and as such are required for proliferation. These constructs were used to test the effect of antisense expression on cell sensitivity to antibiotics known to bind to the ribosome and thereby inhibit protein synthesis. Constructs expressing antisense RNA to several other genes (elaD, visC, yohh, and atpE/B), the products of which are not involved in protein synthesis were used for comparison.\nFirst pLex5BA (Krause et al., J. Mol. Biol. 274: 365 (1997), the disclosure of which is incorporated herein by reference in its entirety) expression vectors containing antisense constructs to either rplW or to elaD were introduced into separate E. coli cell populations. Vector introduction is a technique well known to those of ordinary skill in the art. The expression vectors of this example contain IPTG inducible promoters that drive the expression of the antisense RNA in the presence of the inducer. However, those skilled in the art will appreciate that other inducible promoters may also be used. Suitable expression vectors are also well known in the art. The E. coli antisense clones encoding ribosomal proteins L7/L12, L10 and L23 were used to test the effect of antisense expression on cell sensitivity to the antibiotics known to bind to these proteins. […]\nThe cell populations were exposed to a range of IPTG concentrations in liquid medium to obtain the growth inhibitory dose curve for each clone (FIG. 1). First, seed cultures were grown to a particular turbidity that is measured by the optical density (OD) of the growth solution. […] The cells were grown for up to 15 hours and the extent of growth was determined by measuring the optical density of the cultures at 600 nm. […]"}, "[2]": {"tested_on": "bacterial strain engineered for expression of an antisense against rplL and rplJ (50S ribosomal subunit proteins)", "assay": "microbe, parasite or virus in culture", "assay_type": "cell-based, E. coli", "conditions": "read-out: IC50 (+I)", "experimental": "Antibiotics of various chemical classes and modes of action were purchased from Sigma Chemicals (St. Louis, Mo.). Stock solutions were prepared by dissolving each antibiotic in an appropriate aqueous solution based on information provided by the manufacturer. The final working solution of each antibiotic contained no more than 0.2% (w/v) of any organic solvent. To determine their potency against a bacterial strain engineered for expression of an antisense against a proliferation-required gene encoding 50S ribosomal protein, each antibiotic was serially diluted two or three fold in growth medium supplemented with the appropriate antibiotic for maintenance of the anti-sense construct. At least ten dilutions were prepared for each antibiotic. 25 μL aliquots of each dilution were transferred to discrete wells of a 384-well microplate (the assay plate) using a multi-channel pipette. Quadruplicate wells were used for each dilution of an antibiotic under each treatment condition (plus and minus inducer). Each assay plate contained twenty wells for cell growth controls (growth media replacing antibiotic), ten wells for each treatment (plus and minus inducer, in this example IPTG). Assay plates were usually divided into the two treatments: half the plate containing induced cells and an appropriate concentrations of inducer (in this example IPTG) to maintain the state of induction, the other half containing non-induced cells in the absence of IPTG.\nCells for the assay were prepared as follows. Bacterial cells containing a construct, from which expression of antisense nucleic acid against rplL and rplJ, which encode proliferation-required 50S ribosomal subunit proteins, is inducible in the presence of IPTG, were grown into exponential growth (OD600 0.2 to 0.3) and then diluted 1:100 into fresh media containing either 400 μM or 0 μM inducer (IPTG). These cultures were incubated at 37° C. for 2.5 hr. After a 2.5 hr incubation, induced and non-induced cells were respectively diluted into an assay medium at a final OD600 value of 0.0004. The medium contained an appropriate concentration of the antibiotic for the maintenance of the anti-sense construct. In addition, the medium used to dilute induced cells was supplemented with 800 μM IPTG so that addition to the assay plate would result in a final IPTG concentration of 400 μM. Induced and non-induced cell suspensions were dispensed (25 μl/well) into the appropriate wells of the assay plate as discussed previously. The plate was then loaded into a plate reader, incubated at constant temperature, and cell growth was monitored in each well by the measurement of light scattering at 595 nm. Growth was monitored every 5 minutes until the cell culture attained a stationary growth phase. For each concentration of antibiotic, a percentage inhibition of growth was calculated at the time point corresponding to mid-exponential growth for the associated control wells (no antibiotic, plus or minus IPTG). For each antibiotic and condition (plus or minus IPTG), a plot of percent inhibition versus log of antibiotic concentration was generated and the IC50 determined."}, "E. coli": {"tested_on": "E. coli", "assay": "Inhibition of E. coli proliferation after IPTG induction of antisense clones (liquid growth curves, dilution spotting on plates)", "assay_type": "cell-based, Escherichia coli", "conditions": "1 mM IPTG", "experimental": "(§1) To study the effects of transcriptional induction in liquid medium, growth curves were carried out by back diluting cultures 1:200 into fresh media with or without 1 mM IPTG and measuring the OD450 every 30 minutes (min). To study the effects of transcriptional induction on solid medium, 10^2, 10^3, 10^4, 10^5, 10^6, 10^7 and 10^8 fold dilutions of overnight cultures were prepared. Aliquots of from 0.5 to 3 μl of these dilutions were spotted on selective agar plates with or without 1 mM IPTG. After overnight incubation, the plates were compared to assess the sensitivity of the clones to IPTG.\n(§2) Molecule No. EcXA059, encoding a portion of the ypjA gene of Escherichia coli, was either transformed directly into Enterobacter cloacae, Salmonella typhimurium and/or Klebsiella pneumoniae or subdloned into an expression vector functional in these species and the subclones transformed into these organisms. Suitable expression vectors are well known in the art. These expression vectors were introduced into Enterobacter cloacae, Salmonella typhimurium and/or Klebsiella pneumoniae cells that were then assayed for growth inhibition according to the method of Example 1. After growth in liquid culture, cells were plated at various serial dilutions and a score determined by calculating the log difference in growth for INDUCED vs. UNINDUCED antisense RNA expression as determined by the maximum 10 fold dilution at which a colony was observed. If there was no effect of antisense RNA expression in one organism, the clone is given a score of zero “0” in that organism. In contrast, a score of “8” means that 10^8 times more cells were required to observe a colony formed on the induced state than in the non-induced state under the conditions used and in that organism."}, "Enterobacter cloacae": {"tested_on": "Enterobacter cloacae", "assay": "Growth inhibition by IPTG-induced antisense RNA expression in Enterobacter cloacae (induced vs. uninduced serial dilution plating)", "assay_type": "cell-based", "experimental": "as §1, §2\n(§3) Expression vectors which inhibited growth of E. coli upon induction of antisense RNA expression with IPTG were transformed directly into Enterobacter cloacae, Klebsiella pneumonia or Salmonella typhimurium. The transformed cells were then assayed for growth inhibition according to the method of Example 1. After growth in liquid culture, cells were plated at various serial dilutions and a score determined by calculating the log difference in growth for INDUCED vs. UNINDUCED antisense RNA expression as determined by the maximum 10 fold dilution at which a colony was observed. If there was no effect of antisense RNA expression in a microorganism, the clone is minus in Table V below. In contrast, a positive in Table V below means that at least 10 fold more cells were required to observe a colony on the induced plate than on the non-induced plate under the conditions used and in that microorganism."}, "Salmonella typhimurium": {"tested_on": "Salmonella typhimurium", "assay": "Growth inhibition by IPTG-induced antisense RNA expression in Salmonella typhimurium (induced vs. uninduced serial dilution plating)", "assay_type": "cell-based", "experimental": "as §1, §2, §3"}, "Klebsiella pneumoniae": {"tested_on": "Klebsiella pneumoniae", "assay": "Growth inhibition by IPTG-induced antisense RNA expression in Klebsiella pneumoniae (induced vs. uninduced serial dilution plating)", "assay_type": "cell-based", "experimental": "as §1, §2, §3"}}}
{"molecule": "CC1COc2c(N3CCN(C)CC3)c(F)cc3c(=O)c(C(=O)O)cn1c23", "note": "(centres unmarked) [Ofloxacin]", "values": [{"measurement": "sensitivity to antibiotics which do not inhibit protein synthesis", "setting": "[1]; clone expressing antisense to rplL and rplJ", "value": "does not show increased sensitivity"}, {"measurement": "IC50", "setting": "[2]", "value": 0.0458, "unit": "µg/mL"}]}
{"molecule": "CN(C)[C@@H]1C(O)=C(C(N)=O)C(=O)[C@@]2(O)C(O)=C3C(=O)c4c(O)cccc4[C@@](C)(O)[C@H]3C[C@@H]12", "note": "[Tetracycline]", "values": [{"measurement": "sensitivity to tetracycline (tetracycline IC50 with IPTG vs. without IPTG)", "setting": "[1]; cells expressing antisense to genes not involved in protein synthesis (atpB/E, visC, elaD, yohH)", "value": "did not show the same increased sensitivity"}, {"measurement": "sensitivity to tetracycline (tetracycline IC50 with IPTG vs. without IPTG)", "setting": "[1]; cells with reduced levels of L7/L12 (rplL, rplJ) or L23 (rplW), IPTG giving 50% growth inhibition", "value": "increased sensitivity"}]}
{"molecule": "B1", "values": [{"measurement": "effect of antisense expression on E. coli growth after IPTG induction", "setting": "E. coli", "value": "reduction in cell growth"}, {"measurement": "Sensitivity of E. cloacae to antisense nucleic acid (growth inhibition, induced vs. uninduced)", "setting": "Enterobacter cloacae", "value": "−"}, {"measurement": "Sensitivity of S. typhimurium to antisense nucleic acid (growth inhibition, induced vs. uninduced)", "setting": "Salmonella typhimurium", "value": "−"}, {"measurement": "Sensitivity of K. pneumoniae to antisense nucleic acid (growth inhibition, induced vs. uninduced)", "setting": "Klebsiella pneumoniae", "value": "−"}]}
